Assay [1] deals with T1, Receptor-type tyrosine-protein kinase FLT3 (Homo sapiens, UniProt P36888).
T1 sequence (P36888 whole entry): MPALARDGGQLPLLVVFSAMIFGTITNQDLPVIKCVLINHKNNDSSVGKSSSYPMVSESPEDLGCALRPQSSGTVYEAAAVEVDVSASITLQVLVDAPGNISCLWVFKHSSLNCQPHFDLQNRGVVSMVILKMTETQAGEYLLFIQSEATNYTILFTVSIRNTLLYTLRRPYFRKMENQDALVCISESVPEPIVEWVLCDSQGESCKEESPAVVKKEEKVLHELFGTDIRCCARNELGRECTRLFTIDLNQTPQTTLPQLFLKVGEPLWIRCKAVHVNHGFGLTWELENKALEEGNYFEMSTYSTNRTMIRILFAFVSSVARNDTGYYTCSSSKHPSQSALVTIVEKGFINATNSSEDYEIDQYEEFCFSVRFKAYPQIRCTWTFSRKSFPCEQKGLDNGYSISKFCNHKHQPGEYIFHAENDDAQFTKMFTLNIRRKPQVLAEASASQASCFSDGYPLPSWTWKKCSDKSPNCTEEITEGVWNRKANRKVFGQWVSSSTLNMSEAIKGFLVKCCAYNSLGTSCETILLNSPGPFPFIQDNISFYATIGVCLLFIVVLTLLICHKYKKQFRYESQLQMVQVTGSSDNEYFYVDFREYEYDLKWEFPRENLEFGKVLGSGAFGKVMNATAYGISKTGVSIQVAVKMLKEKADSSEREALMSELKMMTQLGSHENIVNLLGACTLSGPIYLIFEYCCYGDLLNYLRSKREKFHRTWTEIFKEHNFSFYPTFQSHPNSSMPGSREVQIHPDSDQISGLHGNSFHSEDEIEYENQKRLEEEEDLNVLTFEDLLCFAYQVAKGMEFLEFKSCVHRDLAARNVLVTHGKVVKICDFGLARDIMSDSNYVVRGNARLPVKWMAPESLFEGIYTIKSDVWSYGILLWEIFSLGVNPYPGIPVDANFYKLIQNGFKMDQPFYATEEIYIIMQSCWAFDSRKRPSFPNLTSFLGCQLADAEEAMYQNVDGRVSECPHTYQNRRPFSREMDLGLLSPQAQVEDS
Nature of the assay: Inhibition of Flt3 activity in human […] cells by phosphotyrosine cell-based ELISA.

The target in assay [2] is T2, Mitogen-activated protein kinase; ERK1/ERK2 (Homo sapiens) (UniProt P27361+P28482). Nature of the assay: Reduction of ERK1/2 activation in human MDA-MB-435 cells at 20 uM after 1 hr by Western blot analysis. Format: cell-based. On the technique in general: Immunoblotting shows a protein as a band on a membrane.
T2 sequence (P27361 whole entry, looked up): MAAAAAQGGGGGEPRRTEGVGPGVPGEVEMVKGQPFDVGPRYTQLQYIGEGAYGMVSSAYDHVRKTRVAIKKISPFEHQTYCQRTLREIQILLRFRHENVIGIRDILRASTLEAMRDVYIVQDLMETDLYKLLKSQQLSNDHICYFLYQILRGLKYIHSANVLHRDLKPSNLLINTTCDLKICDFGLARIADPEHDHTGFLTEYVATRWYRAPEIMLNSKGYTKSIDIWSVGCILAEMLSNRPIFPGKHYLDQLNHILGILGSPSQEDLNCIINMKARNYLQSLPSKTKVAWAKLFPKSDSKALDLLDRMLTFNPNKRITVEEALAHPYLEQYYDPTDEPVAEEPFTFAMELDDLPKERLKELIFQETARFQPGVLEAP
T2 sequence (P28482 whole entry, looked up): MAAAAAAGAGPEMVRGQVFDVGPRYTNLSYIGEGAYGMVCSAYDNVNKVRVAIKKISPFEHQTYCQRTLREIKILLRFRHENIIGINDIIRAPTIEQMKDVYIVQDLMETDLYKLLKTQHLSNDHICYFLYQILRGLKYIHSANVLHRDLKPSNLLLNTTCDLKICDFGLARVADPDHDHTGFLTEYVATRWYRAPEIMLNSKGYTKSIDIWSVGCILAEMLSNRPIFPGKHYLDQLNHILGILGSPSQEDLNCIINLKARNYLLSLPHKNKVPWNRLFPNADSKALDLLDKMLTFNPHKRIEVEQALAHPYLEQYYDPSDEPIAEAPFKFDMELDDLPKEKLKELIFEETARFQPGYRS
In assay [3] the target is T2, Mitogen-activated protein kinase; ERK1/ERK2 (Homo sapiens). Nature of the assay: Reduction of ERK1/2 activation in human MDA-MB-435 cells at 20 uM after 4 hrs by Western blot analysis. The format is cell-based.
The target of assay [4] is T3, Dihydrofolate reductase (Homo sapiens) (UniProt P00374).
T3 sequence (whole entry): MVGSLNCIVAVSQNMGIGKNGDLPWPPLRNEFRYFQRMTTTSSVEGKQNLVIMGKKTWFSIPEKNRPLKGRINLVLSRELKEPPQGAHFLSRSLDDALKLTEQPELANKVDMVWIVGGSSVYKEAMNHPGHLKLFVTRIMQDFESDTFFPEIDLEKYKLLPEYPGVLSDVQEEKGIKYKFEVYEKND
Description: Inhibition of human DHFR at IC50.

Assay [5] concerns the target T4, Dihydrofolate reductase (Escherichia coli) (UniProt P0ABQ4).
T4 sequence (whole entry): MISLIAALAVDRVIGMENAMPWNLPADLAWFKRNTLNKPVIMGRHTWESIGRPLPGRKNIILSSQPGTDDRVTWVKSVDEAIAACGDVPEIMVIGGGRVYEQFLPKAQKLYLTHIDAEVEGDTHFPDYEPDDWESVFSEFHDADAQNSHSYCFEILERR
Nature of the assay: Inhibition of Escherichia coli DHFR at IC50.

For assay [6], the target named is Vascular endothelial growth factor receptor 1 (Homo sapiens, UniProt P17948). Nature of the assay: Inhibition of VEGFR1 in human A498 cells by phosphotyrosine cell-based ELISA. In general terms: ELISA stands for enzyme-linked immunosorbent assay.
Sequence of Vascular endothelial growth factor receptor 1 (P17948 whole entry): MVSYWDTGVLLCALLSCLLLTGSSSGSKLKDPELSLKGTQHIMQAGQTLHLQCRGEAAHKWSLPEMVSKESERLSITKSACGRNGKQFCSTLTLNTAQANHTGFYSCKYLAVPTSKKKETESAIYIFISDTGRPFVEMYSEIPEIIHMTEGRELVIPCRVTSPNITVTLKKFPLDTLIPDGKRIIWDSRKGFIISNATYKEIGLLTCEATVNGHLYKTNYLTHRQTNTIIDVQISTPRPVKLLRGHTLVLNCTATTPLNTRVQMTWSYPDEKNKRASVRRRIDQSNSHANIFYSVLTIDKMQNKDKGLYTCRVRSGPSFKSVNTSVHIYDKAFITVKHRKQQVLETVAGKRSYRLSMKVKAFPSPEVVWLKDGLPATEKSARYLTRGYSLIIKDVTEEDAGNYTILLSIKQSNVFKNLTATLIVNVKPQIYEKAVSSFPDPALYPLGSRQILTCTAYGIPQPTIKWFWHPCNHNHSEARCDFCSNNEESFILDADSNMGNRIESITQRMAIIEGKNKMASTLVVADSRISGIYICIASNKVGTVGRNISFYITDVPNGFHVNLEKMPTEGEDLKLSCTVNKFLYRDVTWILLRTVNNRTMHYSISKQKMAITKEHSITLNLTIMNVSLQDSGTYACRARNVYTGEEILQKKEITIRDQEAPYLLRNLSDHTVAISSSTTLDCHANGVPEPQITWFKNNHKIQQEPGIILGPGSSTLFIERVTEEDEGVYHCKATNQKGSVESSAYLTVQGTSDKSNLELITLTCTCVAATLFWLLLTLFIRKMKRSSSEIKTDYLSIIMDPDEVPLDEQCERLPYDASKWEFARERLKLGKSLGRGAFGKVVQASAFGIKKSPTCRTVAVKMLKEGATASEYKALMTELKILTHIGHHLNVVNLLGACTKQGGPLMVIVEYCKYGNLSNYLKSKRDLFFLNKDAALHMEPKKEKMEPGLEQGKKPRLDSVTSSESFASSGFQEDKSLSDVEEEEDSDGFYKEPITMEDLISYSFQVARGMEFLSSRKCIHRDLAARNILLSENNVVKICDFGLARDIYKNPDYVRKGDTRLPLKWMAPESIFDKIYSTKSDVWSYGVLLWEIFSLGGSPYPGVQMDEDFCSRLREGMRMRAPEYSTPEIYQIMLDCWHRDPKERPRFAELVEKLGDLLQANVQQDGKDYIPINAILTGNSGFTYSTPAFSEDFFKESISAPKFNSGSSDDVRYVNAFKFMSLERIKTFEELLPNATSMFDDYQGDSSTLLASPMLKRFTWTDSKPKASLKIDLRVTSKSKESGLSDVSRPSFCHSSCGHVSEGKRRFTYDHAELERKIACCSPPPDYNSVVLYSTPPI
For assay [7], the target named is Platelet-derived growth factor receptor beta (Homo sapiens, UniProt P09619). Description: Inhibition of PDGFRbeta in human SF539 cells by phosphotyrosine cell-based ELISA. Set-up: species or system SF-539.
Sequence of Platelet-derived growth factor receptor beta (P09619 whole entry): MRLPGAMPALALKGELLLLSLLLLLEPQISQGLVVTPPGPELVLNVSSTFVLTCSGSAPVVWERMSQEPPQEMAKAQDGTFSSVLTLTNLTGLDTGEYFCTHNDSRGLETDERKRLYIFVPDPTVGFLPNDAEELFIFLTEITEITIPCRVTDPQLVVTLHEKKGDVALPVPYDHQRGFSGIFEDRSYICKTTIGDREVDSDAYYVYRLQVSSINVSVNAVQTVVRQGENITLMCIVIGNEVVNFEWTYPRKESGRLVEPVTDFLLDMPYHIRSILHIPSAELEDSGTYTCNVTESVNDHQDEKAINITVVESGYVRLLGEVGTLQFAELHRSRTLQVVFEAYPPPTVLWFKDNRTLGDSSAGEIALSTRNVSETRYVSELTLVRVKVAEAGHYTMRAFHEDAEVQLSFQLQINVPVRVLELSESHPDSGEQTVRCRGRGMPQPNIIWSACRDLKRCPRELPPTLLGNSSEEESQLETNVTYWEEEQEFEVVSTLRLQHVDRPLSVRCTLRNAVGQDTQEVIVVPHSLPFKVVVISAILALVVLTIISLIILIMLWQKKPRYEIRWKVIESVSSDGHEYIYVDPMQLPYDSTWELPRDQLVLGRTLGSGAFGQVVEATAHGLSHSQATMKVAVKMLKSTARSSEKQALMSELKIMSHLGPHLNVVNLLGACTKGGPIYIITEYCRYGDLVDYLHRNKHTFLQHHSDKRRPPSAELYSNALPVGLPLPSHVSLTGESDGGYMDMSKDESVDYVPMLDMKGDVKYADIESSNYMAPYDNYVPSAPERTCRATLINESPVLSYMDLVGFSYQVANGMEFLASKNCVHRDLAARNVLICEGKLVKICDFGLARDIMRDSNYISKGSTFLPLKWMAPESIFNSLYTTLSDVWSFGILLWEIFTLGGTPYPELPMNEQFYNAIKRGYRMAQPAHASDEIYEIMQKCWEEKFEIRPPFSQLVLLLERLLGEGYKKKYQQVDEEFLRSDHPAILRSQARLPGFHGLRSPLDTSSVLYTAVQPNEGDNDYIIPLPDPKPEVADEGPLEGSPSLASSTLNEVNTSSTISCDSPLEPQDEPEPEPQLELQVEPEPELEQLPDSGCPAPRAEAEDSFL
The target of a further assay is T5, Dihydrofolate reductase (Homo sapiens, UniProt P00374).
T5 sequence (P00374 whole entry): T3 sequence (whole entry)
Description: Inhibition of human DHFR.

The target in assay [8] is Epidermal growth factor receptor (Homo sapiens, UniProt P00533).
Sequence of Epidermal growth factor receptor (P00533 whole entry): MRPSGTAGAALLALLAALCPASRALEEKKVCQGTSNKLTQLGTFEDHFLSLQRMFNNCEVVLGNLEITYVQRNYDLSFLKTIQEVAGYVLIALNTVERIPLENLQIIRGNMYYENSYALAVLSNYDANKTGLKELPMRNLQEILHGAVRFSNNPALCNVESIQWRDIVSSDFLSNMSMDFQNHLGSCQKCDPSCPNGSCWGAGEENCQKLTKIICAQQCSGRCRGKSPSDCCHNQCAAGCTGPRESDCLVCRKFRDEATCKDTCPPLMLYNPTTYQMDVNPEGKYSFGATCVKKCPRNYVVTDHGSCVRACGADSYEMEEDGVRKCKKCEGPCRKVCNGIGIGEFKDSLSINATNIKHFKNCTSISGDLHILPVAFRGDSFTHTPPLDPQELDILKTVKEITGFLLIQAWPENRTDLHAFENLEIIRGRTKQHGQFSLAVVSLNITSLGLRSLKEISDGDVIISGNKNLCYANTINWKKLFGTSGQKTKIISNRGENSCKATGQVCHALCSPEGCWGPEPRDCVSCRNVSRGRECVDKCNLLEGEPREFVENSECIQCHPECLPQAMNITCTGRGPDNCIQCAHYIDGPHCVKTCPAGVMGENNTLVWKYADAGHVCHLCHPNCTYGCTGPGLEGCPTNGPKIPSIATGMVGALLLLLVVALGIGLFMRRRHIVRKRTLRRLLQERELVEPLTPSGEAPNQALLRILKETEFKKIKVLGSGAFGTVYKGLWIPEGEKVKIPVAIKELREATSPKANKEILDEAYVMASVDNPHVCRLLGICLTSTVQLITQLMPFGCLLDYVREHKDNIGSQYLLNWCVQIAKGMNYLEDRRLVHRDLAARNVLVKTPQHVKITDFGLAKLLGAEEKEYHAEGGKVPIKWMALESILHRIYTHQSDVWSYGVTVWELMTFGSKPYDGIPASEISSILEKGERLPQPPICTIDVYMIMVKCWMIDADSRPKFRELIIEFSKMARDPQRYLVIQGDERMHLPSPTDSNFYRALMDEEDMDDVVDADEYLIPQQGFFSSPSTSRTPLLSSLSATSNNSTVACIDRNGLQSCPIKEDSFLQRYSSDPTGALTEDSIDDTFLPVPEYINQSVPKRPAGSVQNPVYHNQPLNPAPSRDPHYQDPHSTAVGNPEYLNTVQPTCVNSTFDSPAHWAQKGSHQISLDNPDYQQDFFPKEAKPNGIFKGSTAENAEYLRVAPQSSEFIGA
The target of assay [9] is Vascular endothelial growth factor receptor 2 (Homo sapiens, UniProt P35968).

Active and inactive are the calls of the source. No cut-off for these calls is given here.

As for `COc1ccc(C(=O)Nc2sc3c(c2C(N)=O)CCCC3)cc1OC`, half-maximal inhibition in [1] (IC50) required 2.9 µM.

As for `Cc1ccc(Sc2cccc3[nH]c4nc(N)nc(N)c4c23)cc1`, the result in assay [2] and in assay [3] was Active. For the same molecule, the inhibition (usually the percentage by which the read-out fell short of the control) in assay [4] is 7%; in [5] it was 27%. The IC50 (as a rule, the concentration needed to halve the response being measured) in [1] is 39.6 µM; in assay [6] it was 160 µM; in assay [7] it was 40.3 µM; at Dihydrofolate reductase, > 31 µM; in [8], 10.4 µM; in assay [9], 56.3 µM.

For the molecule `Nc1nc(N)c2c(n1)[nH]c1cccc(Sc3ccccc3)c12`, the result in assay [2] and in [3] was Active. Further, the values for the inhibition in assay [4] and in assay [5] were 17% and 35%, respectively. The results for the IC50 (in assay [1]; in assay [6]; at Dihydrofolate reductase) were 41.2 µM, 118 µM and > 33 µM, respectively.
